Measurements: patent US10653691B2, “Method of promoting remyelination” (Case Western Reserve University, priority 2013, dated 2020)

Columns and labels:
[1] = system: PLP139-151- or MOG35-55-sensitized lymph node cells; test: Ex vivo lymphocyte recall assays; type: cell-based, mouse
mouse OPCs = test: OPC differentiation into MBP+ oligodendrocytes; type: cell-based; details: for number of MBP+ oligodendrocytes by duration of treatment: 24, 48, 56 and 72 h; for number of MBP+ oligodendrocytes at 72 h by time of treatment start: treatment started at 0, 16, 24 or 48 h
Description: EpiSC-derived OPCs were seeded onto poly-D-lysine 96-well Viewplate or CellCarrier plates (PerkinElmer) coated with laminin (Sigma, L2020; 10 μgml^−1) using electronic multichannel pipetors. For the primary screen, 30,000 cells were seeded per well in screening medium (DMEM/F12 supplemented with N2 (R&D Systems), B-27 (Life Technologies), neurotrophin 3 (R&D Systems; 10 ng ml^−1), cAMP (Sigma; 50 μM), IGF-1 (R&D Systems; 100 ng ml^−1), noggin (R&D Systems; 100 ngml^−1)) and allowed to attach for 2 h before addition of drug. NIH Clinical Collection I and II drugs were added to assay plates with 0.1 ml pin replicators (Molecular Devices, Genetix; X5051), resulting in a final primary screening concentration of 5 μM. Thyroid-hormone-positive controls and DMSO vehicle controls were included in each assay plate. Cells were incubated under standard conditions (37° C., 5% CO2) for 3 days and fixed with 4% paraformaldehyde (PFA) in phosphate buffered saline (PBS). Fixed plates were permeabilized with 0.1% Triton X-100 and blocked with 10% donkey serum (v/v) in PBS for 2 h. Cells were labelled with MBP antibodies (Abcam, ab7349; 1:100) for 1 h at room temperature (˜22° C.) followed by detection with Alexa Fluorconjugated secondary antibodies (1:500) for 45 min. Nuclei were visualized by DAPI staining (Sigma; 1 μgml^−). All plates for the primary screen were processed and analyzed simultaneously to eliminate variability.
For the 5 μM in vitro screen, stained plates were imaged on the Opera confocal imaging system (PerkinElmer) and a set of 24×10 fields were collected from each well, resulting in an average of 10,000 cells being scored per well. For the dose-response (6.7 μM, 5 μM, 3.3 μM, 1.7 μM, 666 nM, 500 nM, and 333 nM) in vitro assays, plates were imaged on the Operetta High Content Imaging and Analysis system (PerkinElmer) and a set of 14×20 fields captured from each well resulting in an average of 3,300 cells being scored per well. […] Each traced nucleus region was then expanded by 50% and cross-referenced with the mature myelin protein (MBP or PLP1) stain to identify oligodendrocyte nuclei, and from this the percentage of oligodendrocytes was calculated. Processes emanating from oligodendrocyte nuclei were identified using the CSIRO2 analysis module within a custom Acapella script. Maximum mean process length (denoted ‘process length’) and mean process intensity (denoted ‘process intensity’) were generated on a per well basis. For the 5 μM in vitro screen, values were calculated and normalized to 100 for thyroid hormone (positive control)-treated wells and to 0 for DMSO(vehicle)-treated wells, on a per plate basis.

LPC lesion mouse model = test: LPC-induced focal demyelination of the spinal cord and drug treatment; type: in vivo; details: for MBP staining in the lesions: 8 and 12 d.p.l.; for number of newly generated CC1+ oligodendrocytes in the lesion core: 8 d.p.l., miconazole 10 or 40 mg per kg, clobetasol 2 mg per kg, vs vehicle; for extent of remyelination (electron micrographs, toluidine blue): lesions of treated mice
Description: Focal demyelination in the spinal cord was induced by the injection of 1% LPC solution. Ten- to 12-week-old C57BL/6 female mice were anaesthetized using isoflurane and a T10 laminectomy was performed. One microlitre of 1% LPC was infused into the dorsal column at a rate of […]. The animals were euthanized either at day 8 or day 12 after the laminectomy (n=6-9 per group). Animals that were euthanized at day 8 received vehicle or drug daily by intraperitoneal injection between days 3 and 7. Animals used in the day 12 experiments received vehicle or drug daily by intraperitoneal injection between days 4 and 11. Drugs were dissolved in DMSO and then diluted with sterile saline for injection. Mice were deeply anaesthetized using ketamine/xylazine rodent cocktail and then euthanized by transcardial perfusion with 4% PFA for histological analysis or 4% PFA, 2% gluteraldehyde, and 0.1M sodium cacodylate for electron microscopy. PFA fixed tissue was equilibrated in 30% sucrose, embedded in OCT, and cryosectioned at 20 μm thickness and processed for CC1 and MBP immunohistochemistry. ImageJ was used to measure area of the lesion and CC1^+ cells within the lesion were scored manually. For CC1 scoring, sections were taken from the centre of each lesion to control for lesion variability.
Samples were processed as previously described.

OPCs = test: HCA of astrocyte induction (GFAP); type: cell-based, mouse; details: 72 h, in vitro
Description: For the astrocyte experiments in FIG. 3C, the experimental setup was identical to the PLP1-based primary validation screen except plates were stained for GFAP (DAKO, Z0334; 1:5,000). BMP4 (R&D Systems; 50 ng ml^−1) and LIF (Millipore; 10^3 U ml^−1) were used as the positive control for astrocyte induction. Assay plates were imaged on the Operetta High Content Imaging and Analysis system and a set of 14×20 fields captured. Columbus Data Management and Analysis System software (PerkinElmer) was used to quantify the percentage of GFAP1 astrocytes in each well using a method similar to that developed for oligodendrocytes.

[2] = system: hESC- and hiPSC-derived human OPCs; test: Screening of human OPCs (MBP staining, HCA); type: cell-based; details: 21 days; miconazole 1 μM, clobetasol 5 μM; vs DMSO
Description: Human OPCs were generated from skin fibroblast-derived human iPSC line (CWRU43, Tesar laboratory) and hESC lines H7 (NIH Human Embryonic StemCell RegistryWA07; NIH approval number NIHhESC-10-0061) and H9 (NIH Human Embryonic Stem Cell Registry WA09; NIH approval number NIHhESC-10-0062) as previously described. iPSC- and hESC-derived OPCs were characterized by Sox10 (R&D Systems, AF2864; 1:100) staining, and then seeded in 96-well plates at 40,000 cells per well for drug testing. […] Plates were fixed and stained with MBP (Abcam, ab7349; 1:100) then imaged on the Operetta system. We analysed results with slight modification to HCA Acapella scripts used for mouse oligodendrocytes.

[3] = system: 414 different kinase isoforms; test: Kinase profiling (LanthaScreen, Z'-LYTE, Adapta); type: biochemical; details: 414 kinase isoforms
Description: LanthaScreen, Z9-LYTE, and Adapta kinase assays were performed by Select Screen (Life Technologies). LanthaScreen Eu kinase assays were performed in Greiner low-volume 384-well plates. Assay buffer consisted of 50 mM HEPES pH 7.5, 0.01% BRIJ-35, 10 mM MgCl2, 1 mM EGTA. Each well consisted of this mixture: 4.0 μl of 4 μM test drug in assay buffer, 8 μl of 2× kinase/Eu antibody mixture, and 4 μl of 4×Alexa Fluor 647 tracer. Plates were incubated for 60 min at room temperature (˜22° C.), then Alexa Fluor 647 emission (665 nm) and Europium emission (615 nm) read on a fluorescent plate reader. Data were analysed by generating the emission ratio (665 nm/615 nm) for each test point and normalizing 0% to control wells with no known inhibitor and 100% to control wells with highest concentration of known inhibitor.
Z′-LYTE assays were performed in Corning, low volume 384-well plates. Assay buffer consisted of 50 mM HEPES pH 7.5, 0.01% BRIJ-35, 10 mM MgCl2, 1 mM EGTA. […] Coumarin emission (445 nm) and fluorescein emission (520 nm) were read on a fluorescent plate reader. Data were analysed by normalizing out background fluorescence then generating the emission ratio (445 nm/520 nm) for each test point. […]
Adapta assays were performed in Corning, low volume 384-well plates. […] Alexa Fluor 647 emission (665 nm) and europium emission (615 nm) were read on a fluorescent plate reader. […]

[4] = system: muscarinic receptor subtypes (M1-M5); test: Muscarinic receptor antagonism, GeneBLAzer or Tango cellular reporter assays; type: cell-based; details: 1 μM
Description: GeneBLAzer or Tango assays were performed to determine level of acetylcholine muscarinic receptor M1, M3, M5 (GeneBLAzer), M2 and […] (Tango) antagonism.

Row | SMILES | proliferation and secretion of cytokines by sensitized lymph node cells ([1]; 10^−9-10^−5 M) | number of MBP+ oligodendrocytes by duration of treatment (mouse OPCs) | number of MBP+ oligodendrocytes at 72 h by time of treatment start (mouse OPCs) | MBP staining in the lesions (LPC lesion mouse model) | number of newly generated CC1+ oligodendrocytes in the lesion core (LPC lesion mouse model) | myelin thickness relative to axon diameter (g ratio) (LPC lesion mouse model; 12 d.p.l., compared with intact myelin) | extent of remyelination (electron micrographs, toluidine blue) (LPC lesion mouse model) | astrocyte formation from OPCs (OPCs) | human OPC differentiation [2] | inhibition of kinase activity [3] | inhibition of muscarinic receptor subtypes M1-M5 [4] | modulation of immune cell function ([1]; summary of immune cell survival and function assays)
1 | C[C@H]1C[C@H]2[C@@H]3CCC4=CC(=O)C=C[C@]4(C)[C@@]3(F)[C@@H](O)C[C@]2(C)[C@@]1(O)C(=O)CCl [clobetasol] | altered naïve T-cell differentiation and both the proliferation and secretion of cytokines | progressive, time-dependent increase | dependent on drug treatment within the first 24 h of differentiation | extensive MBP staining | significant increase in the number of newly generated CC1^+ oligodendrocytes | thinner than intact myelin | striking increase in the extent of remyelination | neither drug showed a significant impact on astrocyte formation | enhanced human OPC differentiation | Neither clobetasol nor miconazole inhibited any of the kinases tested | Neither miconazole nor clobetasol inhibited any of the five muscarinic receptor subtypes | –
2 | Clc1ccc(COC(Cn2ccnc2)c2ccc(Cl)cc2Cl)c(Cl)c1 (stereo not drawn) [miconazole] | – | progressive, time-dependent increase | dependent on drug treatment within the first 24 h of differentiation | extensive MBP staining | significant increase in the number of newly generated CC1^+ oligodendrocytes | – | striking increase in the extent of remyelination | neither drug showed a significant impact on astrocyte formation | enhanced human OPC differentiation, with miconazole exhibiting the most reproducible and potent effects | Neither clobetasol nor miconazole inhibited any of the kinases tested | Neither miconazole nor clobetasol inhibited any of the five muscarinic receptor subtypes | did not modulate immune cell function
